According to ChEMBL document CHEMBL1132382 (J Med Chem, 1999):
pKi: −log10 of the molar value.

How the values were obtained:
[1] = target: Carbonic anhydrase 1 (Homo sapiens, UniProt P00915)
Description: Inhibitory activity against human recombinant carbonic anhydrase I (CA1)

[2] = target: T1, Carbonic anhydrase 4 (Bos taurus, UniProt Q95323)
T1 sequence (Q95323 whole entry): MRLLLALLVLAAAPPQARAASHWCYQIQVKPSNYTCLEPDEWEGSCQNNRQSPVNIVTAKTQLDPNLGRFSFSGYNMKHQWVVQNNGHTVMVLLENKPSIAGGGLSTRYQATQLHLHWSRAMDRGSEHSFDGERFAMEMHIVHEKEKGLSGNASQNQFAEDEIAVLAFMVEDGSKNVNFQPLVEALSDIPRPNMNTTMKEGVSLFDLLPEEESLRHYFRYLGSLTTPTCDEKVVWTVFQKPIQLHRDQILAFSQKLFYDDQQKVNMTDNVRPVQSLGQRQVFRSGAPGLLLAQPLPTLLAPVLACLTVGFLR
Description: Inhibitory activity against bovine carbonic anhydrase IV (CA4), isolated from bovine lung microsomes

[3] = not given; remark: listed apart in the source
[4] = octanol/water
Description: Partition coefficient (logD) (chloroform/buffer)

Chain of Carbonic anhydrase 1 (P00915 whole entry): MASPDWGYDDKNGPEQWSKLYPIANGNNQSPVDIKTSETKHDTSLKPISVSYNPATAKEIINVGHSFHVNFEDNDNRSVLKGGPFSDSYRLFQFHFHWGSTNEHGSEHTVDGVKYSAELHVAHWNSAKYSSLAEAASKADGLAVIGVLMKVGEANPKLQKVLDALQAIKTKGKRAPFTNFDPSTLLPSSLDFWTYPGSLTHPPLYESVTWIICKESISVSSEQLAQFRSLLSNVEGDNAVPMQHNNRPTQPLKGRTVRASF

Row | pKi [1] | pKi [2] | kin [h⁻¹] | kin [3] [h⁻¹] | logD [4] | Compound
1 | 6.47 | 7.15 |  |  |  | Cn1nc(S(N)(=O)=O)s/c1=N\C(=O)CN
2 | 7.80 | 7.16 |  |  |  | NCC(=O)NS(=O)(=O)c1nc2ccc(O)cc2s1
3 | 6.28 | 7.26 |  |  |  | CNCC(=O)Nc1c(S(N)(=O)=O)cc(S(N)(=O)=O)c(Cl)c1Cl
4 | 7.28 | 7.40 |  |  |  | CN(CC(=O)Nc1nccc(Nc2ccc(S(N)(=O)=O)cc2)n1)C(=N)N
5 | 6.27 | 7.19 |  |  |  | CNCC(=O)Nc1ccc(S(N)(=O)=O)cc1Br
6 | 5.82 | 6.91 |  |  |  | CNCC(=O)NS(=O)(=O)c1ccc(CO)cc1
7 | 7.29 | 7.21 |  |  |  | CNCC(=O)Nc1ccc(S(=O)(=O)Nc2cccc(S(N)(=O)=O)c2)cc1
8 | 7.22 | 7.22 |  |  |  | CNCC(=O)Nc1nccc(Nc2ccc(S(N)(=O)=O)cc2)n1
9 | 4.79 | 6.75 |  |  |  | CN(CC(=O)Nc1cccc(S(N)(=O)=O)c1)C(=N)N
10 | 4.69 | 6.69 |  |  |  | CN(CC(=O)Nc1ccccc1S(N)(=O)=O)C(=N)N
11 | 6.44 | 7.27 |  |  |  | NCC(=O)NCC(=O)Nc1cc(Cl)c(S(N)(=O)=O)cc1S(N)(=O)=O
12 | 7.21 | 7.12 |  |  |  | NCC(=O)Nc1nccc(Nc2ccc(S(N)(=O)=O)cc2)n1
13 | 5.85 | 7.09 |  |  |  | NCC(=O)NCc1ccc(S(N)(=O)=O)cc1
14 | 4.60 | 6.52 |  |  |  | NCC(=O)NCC(=O)NNc1ccc(S(N)(=O)=O)cc1
15 | 5.74 | 6.74 |  |  |  | NCC(=O)NS(=O)(=O)c1ccc(CO)cc1
16 | 8.05 | 7.64 |  |  |  | NCC(=O)NS(=O)(=O)c1nc2ccc(OCCO)cc2s1
17 | 5.82 | 6.82 |  |  |  | NCC(=O)NCC(=O)NS(=O)(=O)c1ccc(CO)cc1
18 | 6.07 | 7.12 |  |  |  | NCC(=O)NCCc1ccc(S(N)(=O)=O)cc1
19 |  | 6.76 |  |  |  | NCC(=O)Nc1ccc(S(N)(=O)=O)cc1
20 | 6.25 | 7.15 |  |  |  | CNCC(=O)Nc1ccc(S(N)(=O)=O)cc1I
21 | 7.96 | 7.82 |  |  |  | CN(CC(=O)NS(=O)(=O)c1nc2ccc(O)cc2s1)C(=N)N
22 | 6.02 | 7.15 |  |  |  | CN(CC(=O)NCc1ccc(S(N)(=O)=O)cc1)C(=N)N
23 | 6.44 | 7.22 |  |  |  | NCC(=O)Nc1cc(Cl)c(S(N)(=O)=O)cc1S(N)(=O)=O

Row | pKi [1] | pKi [2] | kin [h⁻¹] | kin [3] [h⁻¹] | logD [4] | Compound
24 | 4.59 | 6.52 |  |  |  | NCC(=O)NNc1ccc(S(N)(=O)=O)cc1
25 | 4.77 | 6.63 |  |  |  | NCC(=O)NCC(=O)Nc1cccc(S(N)(=O)=O)c1
26 | 7.26 | 7.22 |  |  |  | NCC(=O)NCC(=O)Nc1ccc(S(=O)(=O)Nc2cccc(S(N)(=O)=O)c2)cc1
27 | 6.11 | 7.19 |  |  |  | CN(CC(=O)NCCc1ccc(S(N)(=O)=O)cc1)C(=N)N
28 | 6.10 | 7.15 |  |  |  | NCC(=O)NCC(=O)NCCc1ccc(S(N)(=O)=O)cc1
29 | 5.87 | 7.12 |  |  |  | NCC(=O)NCC(=O)NCc1ccc(S(N)(=O)=O)cc1
30 | 6.24 | 7.15 |  |  |  | NCC(=O)NCC(=O)Nc1ccc(S(N)(=O)=O)cc1Br
31 | 6.52 | 7.41 |  |  |  | CNCC(=O)Nc1nnc(S(N)(=O)=O)s1
32 | 6.26 | 7.19 |  |  |  | NCC(=O)NCC(=O)Nc1ccc(S(N)(=O)=O)cc1Cl
33 | 6.22 | 7.14 |  |  |  | NCC(=O)Nc1ccc(S(N)(=O)=O)cc1Br
34 | 6.55 | 7.36 |  |  |  | Cn1nc(S(N)(=O)=O)s/c1=N/C(=O)CNC(=O)CN
35 | 6.51 | 7.38 |  |  |  | CN(CC(=O)Nc1cc(Cl)c(S(N)(=O)=O)cc1S(N)(=O)=O)C(=N)N
36 | 4.68 | 6.61 |  |  |  | CN(CC(=O)NNc1ccc(S(N)(=O)=O)cc1)C(=N)N
37 | 8.00 | 7.92 |  |  |  | CN(CC(=O)Nc1ccc2nc(S(N)(=O)=O)sc2c1)C(=N)N
38 | 5.89 | 6.95 |  |  |  | CNCC(=O)NS(=O)(=O)c1ccc(CCO)cc1
39 | 7.34 | 7.29 |  |  |  | CN(CC(=O)Nc1ccc(S(=O)(=O)Nc2ccc(S(N)(=O)=O)cc2)cc1)C(=N)N
40 | 7.35 | 7.24 |  |  |  | CN(CC(=O)Nc1ccc(S(=O)(=O)Nc2cccc(S(N)(=O)=O)c2)cc1)C(=N)N
41 | 5.82 | 6.82 |  |  |  | NCC(=O)NCC(=O)NS(=O)(=O)c1ccc(CCO)cc1
42 | 7.68 | 8.05 |  |  |  | CNCC(=O)NCCC(=O)Nc1nnc(S(N)(=O)=O)s1
43 | 8.00 | 7.82 |  |  |  | CNCC(=O)NS(=O)(=O)c1nc2ccc(OCCO)cc2s1
44 | 5.92 | 7.05 |  |  |  | CN(CC(=O)NS(=O)(=O)c1ccc(CO)cc1)C(=N)N
45 | 7.96 |  |  |  |  | CNCC(=O)Nc1ccc(S(=O)(=O)/N=c2\sc(S(N)(=O)=O)nn2C)cc1
46 | 6.02 | 7.13 |  |  |  | CNCC(=O)NCc1ccc(S(N)(=O)=O)cc1

Row | pKi [1] | pKi [2] | kin [h⁻¹] | kin [3] [h⁻¹] | logD [4] | Compound
47 | 7.27 | 7.18 |  |  |  | NCC(=O)NCC(=O)Nc1ccc(S(=O)(=O)Nc2ccc(S(N)(=O)=O)cc2)cc1
48 | 6.22 | 7.11 |  |  |  | NCC(=O)Nc1ccc(S(N)(=O)=O)cc1Cl
49 | 6.27 | 7.34 |  |  |  | NCC(=O)Nc1ccc(S(N)(=O)=O)cc1F
50 | 4.66 | 6.55 |  |  |  | CNCC(=O)NNc1ccc(S(N)(=O)=O)cc1
51 | 4.82 | 6.81 |  |  |  | NCC(=O)NCC(=O)Nc1ccc(S(N)(=O)=O)cc1
52 | 4.84 | 6.85 |  |  |  | CN(CC(=O)Nc1ccc(S(N)(=O)=O)cc1)C(=N)N
53 | 6.26 | 7.16 |  |  |  | CN(CC(=O)Nc1ccc(S(N)(=O)=O)cc1I)C(=N)N
54 | 6.09 | 7.15 |  |  |  | CNCC(=O)NCCc1ccc(S(N)(=O)=O)cc1
55 | 6.21 | 7.13 |  |  |  | NCC(=O)Nc1ccc(S(N)(=O)=O)cc1I
56 | 7.92 | 7.21 |  |  |  | NCC(=O)NCC(=O)NS(=O)(=O)c1nc2ccc(O)cc2s1
57 | 6.30 | 7.34 |  |  |  | CNCC(=O)Nc1ccc(S(N)(=O)=O)cc1F
58 | 6.29 | 7.21 |  |  |  | CNCC(=O)Nc1ccc(S(N)(=O)=O)cc1Cl
59 | 6.23 | 7.15 |  |  |  | NCC(=O)NCC(=O)Nc1ccc(S(N)(=O)=O)cc1I
60 | 7.36 | 7.28 |  |  |  | Nc1ccc(S(=O)(=O)Nc2cccc(S(N)(=O)=O)c2)cc1
61 | 7.01 | 7.46 |  |  |  | CCN(C(=O)CN)C1CC(C)S(=O)(=O)c2sc(S(N)(=O)=O)cc21 (centres undefined)
62 |  | 7.30 |  |  |  | Nc1ccc(S(=O)(=O)Nc2ccc(S(N)(=O)=O)cc2)cc1
63 | 8.05 | 7.96 |  |  |  | CN(CC(=O)NS(=O)(=O)c1nc2ccc(OCCO)cc2s1)C(=N)N
64 | 4.63 | 6.62 |  |  |  | NCC(=O)NCC(=O)Nc1ccccc1S(N)(=O)=O
65 | 9.00 | 9.10 |  |  |  | Cn1nc(S(N)(=O)=O)s/c1=N\S(=O)(=O)c1ccc(N)cc1
66 | 7.21 | 7.07 |  |  |  | NCC(=O)Nc1ccc(S(=O)(=O)Nc2ccc(S(N)(=O)=O)cc2)cc1
67 | 7.96 |  |  |  |  | CN(CC(=O)Nc1ccc(S(=O)(=O)/N=c2\sc(S(N)(=O)=O)nn2C)cc1)C(=N)N
68 | 7.22 | 7.16 |  |  |  | NCC(=O)NCC(=O)Nc1nccc(Nc2ccc(S(N)(=O)=O)cc2)n1
69 | 4.78 | 6.71 |  |  |  | CNCC(=O)Nc1cccc(S(N)(=O)=O)c1

Row | pKi [1] | pKi [2] | kin [h⁻¹] | kin [3] [h⁻¹] | logD [4] | Compound
70 | 6.28 | 7.21 |  |  |  | CN(CC(=O)Nc1ccc(S(N)(=O)=O)cc1Br)C(=N)N
71 | 4.69 | 6.69 |  |  |  | CNCC(=O)Nc1ccccc1S(N)(=O)=O
72 | 7.89 |  |  |  |  | Cn1nc(S(N)(=O)=O)s/c1=N\S(=O)(=O)c1ccc(NC(=O)CNC(=O)CN)cc1
73 | 7.68 | 7.92 |  |  |  | NCC(=O)NCC(=O)NCCC(=O)Nc1nnc(S(N)(=O)=O)s1
74 | 8.00 | 7.85 |  |  |  | CNCC(=O)Nc1ccc2nc(S(N)(=O)=O)sc2c1
75 | 6.29 | 7.22 |  |  |  | CN(CC(=O)Nc1ccc(S(N)(=O)=O)cc1Cl)C(=N)N
76 | 5.77 | 6.81 |  |  |  | NCC(=O)NS(=O)(=O)c1ccc(CCO)cc1
77 | 4.60 | 6.61 |  |  |  | NCC(=O)Nc1ccccc1S(N)(=O)=O
78 | 4.82 | 6.84 |  |  |  | CNCC(=O)Nc1ccc(S(N)(=O)=O)cc1
79 | 6.27 | 7.35 |  |  |  | NCC(=O)NCC(=O)Nc1ccc(S(N)(=O)=O)cc1F
80 | 6.28 | 7.29 |  |  |  | CN(CC(=O)Nc1c(S(N)(=O)=O)cc(S(N)(=O)=O)c(Cl)c1Cl)C(=N)N
81 | 7.82 |  |  |  |  | Cn1nc(S(N)(=O)=O)s/c1=N\S(=O)(=O)c1ccc(NC(=O)CN)cc1
82 | 6.00 | 7.07 |  |  |  | CN(CC(=O)NS(=O)(=O)c1ccc(CCO)cc1)C(=N)N
83 | 6.28 | 7.21 |  |  |  | NCC(=O)Nc1c(S(N)(=O)=O)cc(S(N)(=O)=O)c(Cl)c1Cl
84 | 7.22 | 7.10 |  |  |  | NCC(=O)Nc1ccc(S(=O)(=O)Nc2cccc(S(N)(=O)=O)c2)cc1
85 | 7.80 | 7.19 |  |  |  | NCC(=O)NCC(=O)Nc1ccc2nc(S(N)(=O)=O)sc2c1
86 | 7.77 | 7.14 |  |  |  | NCC(=O)Nc1ccc2nc(S(N)(=O)=O)sc2c1
87 | 7.92 | 8.30 |  |  |  | CN(CC(=O)Nc1ccc(S(=O)(=O)Nc2nnc(S(N)(=O)=O)s2)cc1)C(=N)N
88 | 7.96 | 7.52 |  |  |  | CNCC(=O)NS(=O)(=O)c1nc2ccc(O)cc2s1
89 |  | 6.81 |  |  |  | Nc1nccc(Nc2ccc(S(N)(=O)=O)cc2)n1
90 |  |  | 13 | 1.9 | 0.06 | CC(=O)/N=c1/sc(S(N)(=O)=O)nn1C [METHAZOLAMIDE]
